Results on 1 molecule are retold here after article PMC11153306, “Unraveling the efficacy of verbascoside in thwarting MRSA pathogenicity by targeting sortase A” (Applied Microbiology and Biotechnology, 2024).

Each structure is given as a SMILES string.

This experiment has as its target T1, sortase A (SrtA) (Staphylococcus aureus, UniProt Q2FV99).
T1 construct: 6 × His recombinant SrtA from pET28a::srtA
The experiment is described as follows: intrinsic fluorescence quenching (Stern-Volmer, KA); supported by FRET inhibition of purified SrtA (IC50 […]) and reversibility by dilution. The class given is binding. The following applies: read-out: intrinsic fluorescence quenching (Stern-Volmer, KA); supported by FRET inhibitio (converted). From the text: This indicated a significant interaction between verbascoside and SrtA

T1 sequence (Q2FV99 whole entry): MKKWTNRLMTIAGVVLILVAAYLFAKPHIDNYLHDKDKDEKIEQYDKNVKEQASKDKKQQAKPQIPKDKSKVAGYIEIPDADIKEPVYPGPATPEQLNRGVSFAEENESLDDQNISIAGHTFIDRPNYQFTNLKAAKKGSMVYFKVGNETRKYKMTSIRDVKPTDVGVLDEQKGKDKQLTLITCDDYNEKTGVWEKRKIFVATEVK

As to `C[C@@H]1O[C@@H](O[C@@H]2[C@@H](O)[C@H](OCCc3ccc(O)c(O)c3)O[C@H](CO)[C@H]2OC(=O)/C=C/c2ccc(O)c(O)c2)[C@H](O)[C@H](O)[C@H]1O` [verbascoside], the Kd was 41 µM.
